In US10201558B2, “Compositions of selenoorganic compounds and methods of use thereof” (Alltech, Inc., priority 2014, dated 2019):
“Also recorded” adds a separate entry of the source.

Legend:
Type in all cases: cell-based, human
[1] = test system: PPARG; experiment: QRT-PCR of PPARG mRNA in IMR-32 cells (normal, control KD, FOXO4 KD)
Procedure: IMR-32 cells were cultured on 12-well plates for 24 hours and then incubated with FOXO4 siRNA lentiviruses (SC-29650V, Santa Cruz) or control siRNA lentiviruses (sc-108080, Santa Cruz) in the presence of Polybrene (5 μg/ml, Santa Cruz) for 24 hours according to the manufacturer's protocol. These lentiviral siRNA-transfected cells were amplified in normal media for 3 days and then incubated with puromycin for 9-14 days to obtain the stable Control KD (stably transfected with the control siRNAs) and FOXO4KD (stably transfected with Foxo4 siRNAs) cells. These control and Foxo4 KD cells were subjected to cell survival, mitochondrial potential and RNA analysis.
Human IMR-32 cells were seeded on gelatinized 6-well (6.5×10^5 cells/well) or 24-well (1.3×10^5 cells/well) plates. Cells were treated with control (0 ppb) or various compounds for 6 hours or 24 hours. Total RNA from these cells was isolated using Trizol (Invitrogen) according to the manufacturer's protocol, and then incubated with DNase I to remove any potential contaminated genomic DNA. Then RNA samples were subjected to real-time PCR analysis using the Applied-Bioscience's RT kit and predesigned Taqman probes (Invitrogen), as described previously (Lan et al EMBO J 2003). The mRNA levels of UCP1, UCP2, UCP3, SLC25A27 (UCP4), SLC25A14 (UCP5), PSEN1, Nicastrin, GSK3B, MAPK11-14, PPARG, APOE, RCAN1, RCAN1.1, G6PC, INSR, IGF1R and FOXO4 were measured. Three to six samples were analyzed in each treatment group. Data were normalized by Actin B (ACTB) or Glyceraldehyde Phosphate Dehydrogenase (GAPDH) mRNA levels in each sample and are presented as mean±SEM of 3-6 samples.
To explore this possibility, IMR-32 cells were treated with 150 ppb Compound C, Compound D or Compound E (150 ppb) for 6 hours and 24 hours, and then subjected to Western blot and QRT-PCR analyses. […] Therefore, Compound C and Compound D are downregulators of PPARG in IMR-32 cells at both mRNA and protein levels. […]

[2] = test system: PSEN2; experiment: PSEN2 expression in IMR-32 cells
[3] = test system: Total Tau; experiment: Western blot of Total Tau protein in IMR-32 cells; settings: 150 ppb, 24 hours
Procedure: (§1) IMR-32 cells were seeded on 6-well plates and then treated with control and various compounds for 6 hours and 24 hours, as described above. After treatments, cells were rinsed with ice-cold PBS and lysed in ice-cold RIPA buffer containing complete proteinase and phosphatase inhibitors (Thermo-Fisher Scientific, Waltham, Mass.) on ice for 30 min Cell lysates were collected using a cell scraper and transfer pipette and then centrifuged at 12000×g for 30 min at 4° C. to remove the DNA pellet and obtain the protein extract. Protein levels in the supernatant of these cell lysates were determined using the Pierce Micro-BCA protein assay kit (Thermo Scientific-Piece Biotechnology, Rockford, Ill.) according to the manufacturer's protocol […]
(§2) Positive signals on the membrane blots were detected using Amersham's enhanced chemiluminescence (ECL) Western Blotting Prime Detection reagents (GE healthcare Lifescience, Pittsburgh, Pa.). Images of these luminescence signals on the membrane blots were captured using the LI-COR Odyssey Fc Image system (Lincoln, Nebr.). […] Protein band densities in the Western blots were determined using the Li—COR Image studio software or NIH ImageJ software, and then normalized by ACTB protein level in each sample. […]

[4] = test system: GSK3B; experiment: Western blot of total GSK3B protein in IMR-32 cells; settings: 150 ppb, 24 hours
Procedure: as §1, §2

| Compound | PPARG mRNA expression ([1]; FOXO4KD cells, 75 ppb and 150 ppb, 24 hours) | PPARG mRNA levels ([1]; IMR-32 cells, 150 ppb, 6 hours) | PPARG mRNA levels ([1]; control normal cells, 75 ppb and 150 ppb, 24 hours) | PSEN2 expression [2] | total Tau protein level [3] | total GSK3B protein levels [4] |
| --- | --- | --- | --- | --- | --- | --- |
| C[Se]C[C@H]1O[C@@H](n2cnc3c(N)ncnc32)C(O)C1O (stereo in doubt) [Compound C, 5′-deoxy-5′-methylselenoadenosine] | not significantly altered | significantly lower | attenuated | no downregulation | did not affect | visibly decreased; also recorded: statistically significant decrease |
| C[Se]C[C@H](NC(=O)CC[C@H](N)C(=O)O)C(=O)O [Compound E, γ-L-glutamyl-Se-methyl-L-selenocysteine] | – | – | – | no downregulation | significantly down-regulated | not observed; also recorded: no significant difference |
